Non-standard residues stand in square brackets, D forms with d. Residues, ends and D or L forms follow the SMILES beside them.
What was measured:
GH Release = test: in vivo growth hormone bioassay in pentobarbital-anesthetized male rats, s.c. injection, plasma GH by RIA; parameters: species or system rat; conditions: for INHIBITION POTENCY GH in vivo: Table C, relative potency, SS-14 = 100, based on 4-point assays
Procedure: The in vivo growth hormone bioassay utilized is as follows:
Male Charles River CD rats (200-300 g.) with free access to food and water were anesthetized with sodium pentobarbital (60 mg.kg intraperitoneally). Thirty minutes later saline or octapeptide is injected subcutaneously and blood samples are drawn from the jugular vein 15 minutes after subcutaneous injection. The plasma is separated and assayed for growth hormone by RIA as described above. This in vivo bioassay is a modification of the methods used by Schally, et al., "Hypothalamic Peptide Hormones: Basic and Clinical Studies", "Hormonal Proteins and Peptides", C. H. Li, ed. Academic Press, N.Y. 7: 1-54, 1978; Meyers, C. A., Murphy, W. A., Redding T. W., Coy, D. H. and Schally, A. V., Proc. Natl. Acad. Sci., USA 77: 6171, 1980; Murphy, W. A., Meyers, C. A. and Coy, D. H., Endoc. 109: 491, (1981) as well as Veber et al., Pro. Natl. Acad. Sci., USA 75: 2636-2640 (1978). For some analogs, doses as low as 0.02 μg/100 g. or even 0.005 μg/ 100 g. are active. The potency of the octapeptides of this invention relative to somatostatin is illustrated in Tables A, B and C. Single dose assays are shown in Table A and 4 point assays at 2 dose levels in Tables B and C.

[1] = tested on: pentagastrin or desglugastrin-induced gastric acid output; test: gastric acid secretion in dogs with gastric fistulae; assay type: in vivo
Procedure: In order to compare some of the biological actions of the octapeptides of the present invention and somatostatin on gastrointestinal secretions and on the release of some gastrointestinal homones in dogs, the following procedures are used:
Mongrel dogs weighing 15-20 kg. are prepared surgical with gastric (GF) and pancreatic fistulae (PF) as described by Konturek, et al., (1976) 225, 497 and Konturek, et al., Gastroenterology, (1976) 58, 1-6. Secretions from the GF and PF are collected continuously at 15 minute intervals. Hydrogen ion and pepsin concentrations in the […] are also measured in 15- or 30-minute outputs. (Konturek, et al., J. Physiol. Lond., 255, 497 (1976) and Konturek, et al., (1976) supra.). Basal secretion is first collected for two 15 minute periods, and then the secretory stimulant for gastric and/or pancreatic secretion is administered for 31/2 hours. When the secretory rate reaches a subtained plateau, the octapeptides or somatostatin are given in standard doses (2-μg/Kg/hr.). i.v. for a one hour period. […]
In tests on gastric stimulation, pentagastrin or desglugastrin (glutaroyl-Ala-Tyr-Gly-Trp-Leu-Asp-Phe-NH2) is infused i.v. in a constant dose (3 μg/kg/hr.), shown previously to elicit near maximal gastric acid secretion. Gastric secretion is measured and acid content determined by titration with 0.1N NaOH. […]

growth hormone release = test: time course of growth hormone suppression in vivo in Nembutal-anesthetized male rats; parameters: species or system rat; conditions: 2 μg/100 g
Procedure: In order to determine the time course of the compounds of this invention, male rats are anesthetized with Nembutal and injected with saline or the test octapeptide as in the growth hormone potency assay above. Blood is collected from the jugular vein 15, 30, 45, 60, 90, 120 and 180 minutes post subcutaneous above. This time-course experiment for octapeptides on growth hormone release in vivo a significant suppression of plasma growth hormone. […] At the dose of 2 μg/100 g., the inhibitory effect of somatostatin on growth hormone release is no longer observed after 30 minutes (FIG. 1).

insulin release = test: inhibition of insulin release in vivo in fasted male rats, i.v. injection, portal plasma insulin by RIA; parameters: species or system rat; conditions: Table C; relative potency, SS-14 = 100; based on 4-point assays
Procedure: The octapeptides of the present invention are also compared to synthetic somatostatin for their ability to inhibit the release of insulin and glucagon in vivo in male rats (CD strain, Charles River) weighing 250-300 g. The rats are kept in controlled temperature (24° C.) and light (0500-1900 h) conditions for 1 week before the assay. Rats are fasted 27-30 hours with free access to water then anesthetized with Nembutal (6 mg/100 g. intraperitoneally). After 30 minutes, saline or test peptide is injected into the jugular vein and blood is collected 5 minutes later from the hepatic portal vein then transferred into chilled tubes containing EDTA (2.5 mg/ml.) and Trasylol (500 K.I.U./ml.). Plasma is separated and stored at -20° C. until assayed for insulin and glucagon. Plasma insulin is determined by double antibody radioimmunoassay using a kit from Cambridge Medical Diagnostics.

[2] = tested on: CPZ and Morphine stimulated GH secretion; test: potency #3, time course of CPZ and Morphine stimulated GH secretion; assay type: in vivo; conditions: injected dose 2.0
Text: *Based on time course of CPZ and Morphine stimulated GH secretion.

[3] = tested on: well differentiated (WD), chemically induced ductal adenocarcinoma; conditions: given twice daily or as controlled-release microcapsules; pancreatic cancer model not given; cited from earlier work

Compound: CC(=O)N[C@H](Cc1ccccc1)C(=O)N[C@@H](CS)C(=O)N[C@@H](Cc1ccccc1)C(=O)N[C@H](Cc1c[nH]c2ccccc12)C(=O)N[C@@H](CCCCN)C(=O)N[C@H](C(=O)N[C@@H](CS)C(=O)N1CCC[C@H]1C(N)=O)[C@@H](C)O [RC-76-2H, AcD-PheCysPheD-TrpLysThrCysProNH2] (Ac-[dF]CF[dW]KTCP-NH2)
- INHIBITION POTENCY GH in vivo (GH Release): 1070

Compound: CC(=O)N[C@@H](Cc1ccccc1)C(=O)N[C@@H](CS)C(=O)N[C@@H](Cc1ccccc1)C(=O)N[C@H](Cc1c[nH]c2ccccc12)C(=O)N[C@@H](CCCCN)C(=O)N[C@H](C(=O)N[C@@H](CS)C(=O)N[C@H](C(N)=O)[C@@H](C)O)[C@@H](C)O [RC-101-I-2H, AcPheCysPheD-TrpLysThrCysThrNH2]
- INHIBITION POTENCY GH in vivo (GH Release): 11320

Compound: CC(=O)N[C@H](Cc1ccccc1)C(=O)N[C@@H](CS)C(=O)N[C@@H](Cc1ccccc1)C(=O)N[C@H](Cc1c[nH]c2ccccc12)C(=O)N[C@@H](CCCCN)C(=O)N[C@H](C(=O)N[C@@H](CS)C(=O)N[C@H](C(N)=O)[C@@H](C)O)[C@@H](C)O [RC-101-II-2H, AcD-PheCysPheD-TrpLysThrCysThrNH2]
- INHIBITION POTENCY GH in vivo (GH Release): 12900

Compound: CC(=O)N[C@@H](Cc1ccccc1)C(=O)N[C@H]1CSSC[C@@H](C(=O)N[C@H](C(N)=O)[C@@H](C)O)NC(=O)[C@H]([C@@H](C)O)NC(=O)[C@H](CCCCN)NC(=O)[C@@H](Cc2c[nH]c3ccccc23)NC(=O)[C@H](Cc2ccccc2)NC1=O [RC-101-I]
- INHIBITION POTENCY GH in vivo (GH Release): 13560

Compound: CC(=O)N[C@H](Cc1ccccc1)C(=O)N[C@H]1CSSC[C@@H](C(=O)N[C@H](C(N)=O)[C@@H](C)O)NC(=O)[C@H](C(C)C)NC(=O)[C@H](CCCCN)NC(=O)[C@@H](Cc2c[nH]c3ccccc23)NC(=O)[C@H](Cc2ccc(O)cc2)NC1=O [RC-161]
- INHIBITION POTENCY GH in vivo (GH Release): 5520

Compound: C[C@H](N)C(=O)NCC(=O)N[C@H]1CSSC[C@@H](C(=O)O)NC(=O)[C@H](CO)NC(=O)[C@H]([C@@H](C)O)NC(=O)[C@H](Cc2ccccc2)NC(=O)[C@H]([C@@H](C)O)NC(=O)[C@H](CCCCN)NC(=O)[C@H](Cc2c[nH]c3ccccc23)NC(=O)[C@H](Cc2ccccc2)NC(=O)[C@H](Cc2ccccc2)NC(=O)[C@H](CC(N)=O)NC(=O)[C@H](CCCCN)NC1=O [SS-14, Somatostatin]
- duration of gastric acid inhibition after infusion ([1]; dogs with gastric fistulae): short-lived
- inhibition of gastric acid output from the gastric fistula ([1]; i.v. infusion for one hour, pentagastrin or desglugastrin stimulation): strongly inhibit
- time after which inhibitory effect on growth hormone release is no longer observed (growth hormone release): ≤ 30 min
- INHIBITION POTENCY INSULIN in vivo (insulin release): 100
- GH-RH LEVEL [2]: 0.1032
- GH Level 15' (GH Release; Potency assay #1 (89th experiment), 0.4 μg/100 g B.W., control 116 ± 10): 88 ± 22 ng/mL
- GH Level 15' (GH Release; Potency assay #1, 1.6 μg/100 g B.W., control 116 ± 10): 53 ± 10 ng/mL
- GH Level 15' (GH Release; Potency assay #2 (108th experiment), 0.2 μg/100 g B.W., control 211 ± 56): 171 ± 26 ng/mL
- GH Level 15' (GH Release; Potency assay #2, 0.8 μg/100 g B.W., control 211 ± 56): 91 ± 12 ng/mL
- GH-Level mean ± SEM (GH Release; Table A single dose assay, 2.00 μg/100 g B.W. s.c., saline control 374 ± 69): 50 ± 12 ng/mL
- GH-Level mean ± SEM (GH Release; Table A single dose assay, 2.00 μg/100 g B.W. s.c., saline control 754 ± 155): 95 ± 31 ng/mL
- GH-Level mean ± SEM (GH Release; Table B four-point assay, 0.4 μg/100 g B.W., saline control 277 ± 166): 86 ± 16 ng/mL
- GH-Level mean ± SEM (GH Release; Table B four-point assay, 1.6 μg/100 g B.W., saline control 277 ± 166): 47 ± 17 ng/mL
- INHIBITION POTENCY GH in vivo (GH Release): 100

Compound: D-Trp-6-LH-RH
- tumor weight and volume [3]: significantly decreased

— patent US4725577A, “Biologically active lysine containing octapeptides” (Administrators of the Tulane Educational Fund, priority 1986, dated 1988)
